Experimental data from PubChem BioAssay AID330 (DTP/NCI, 2004).
“And” between values parts separate entries of the source, which are not always exact repeats. Identical values can stand only once. Inconclusive results and toxic doses are left out. Rule for the calls: active = survival T/C of 150% or more; inactive = T/C below 125% in these data.

System: P388 leukemia ip, CD2F1 mice, survival T/C
Assay: NCI In Vivo Anticancer Drug Screen. Data for tumor model P388 Leukemia (intraperitoneal) in CD2F1 (CDF1) mice
Settings: endpoint: median survival time, higher = longer survival
Method in brief: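 Mice carrying the transplanted tumor received test compound or vehicle. Survival was recorded in each group, and the value is the treated-group measurement divided by that of the vehicle-treated control group.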

[1] = dose: 50.0 mg/kg/injection, schedule: Q01DX005 (ip), vehicle: saline with Tween-80
[2] = dose: 100.0 mg/kg/injection, schedule: Q01DX005 (ip), vehicle: saline with Tween-80
[3] = dose: 200.0 mg/kg/injection, schedule: Q01DX005 (ip), vehicle: saline with Tween-80
[4] = dose: 50.0 mg/kg/injection, schedule: Q01DX005 (ip), vehicle: Klucel (hydroxypropylcellulose) (HPC)
[5] = dose: 100.0 mg/kg/injection, schedule: Q01DX005 (ip), vehicle: Klucel (hydroxypropylcellulose) (HPC)

Measured: T/C

Cc1ncc(COP(=O)(O)O)c(C2NCCS2)c1O (stereo not given)
inactive: dose: 60.0 mg/kg/injection, schedule: Q01DX005 (ip), vehicle: saline 102 % of control | dose: 120.0 mg/kg/injection, schedule: Q01DX005 (ip), vehicle: saline 105 % of control | dose: 240.0 mg/kg/injection, schedule: Q01DX005 (ip), vehicle: saline 102 % of control

Cc1ccc(S(=O)(=O)N(C)c2cc(Cl)c(C(=O)O)c(Cl)c2)cc1
inactive: dose: 88.0 mg/kg/injection, schedule: Q04DX003 (ip), vehicle: saline with Tween-80 99 % of control | dose: 133.0 mg/kg/injection, schedule: Q04DX003 (ip), vehicle: saline with Tween-80 100 % of control | dose: 200.0 mg/kg/injection, schedule: Q04DX003 (ip), vehicle: saline with Tween-80 99 % of control | dose: 300.0 mg/kg/injection, schedule: Q04DX003 (ip), vehicle: saline with Tween-80 100 % of control

CSc1ccc2ns[s+]c2c1
inactive: [1] 104 % of control | [2] 102 % of control | [3] 101 % of control

O=C(CC1=NC2NN(c3ccccc3)C(=O)C2=C1CC(=O)C(c1ccccc1)c1ccccc1)C(c1ccccc1)c1ccccc1 (stereo not given)
inactive: dose: 60.0 mg/kg/injection, schedule: Q01DX005 (ip), vehicle: suspension in saline 98 % of control | dose: 120.0 mg/kg/injection, schedule: Q01DX005 (ip), vehicle: suspension in saline 102 % of control | dose: 240.0 mg/kg/injection, schedule: Q01DX005 (ip), vehicle: suspension in saline 100 % of control

CCn1c(=O)c2c(N(CCO)CCO)snc2n(CC)c1=O
inactive: dose: 100.0 mg/kg/injection, schedule: Q04DX002 (ip), vehicle: suspension in saline 104 % of control | dose: 200.0 mg/kg/injection, schedule: Q04DX002 (ip), vehicle: suspension in saline 101 % of control | dose: 400.0 mg/kg/injection, schedule: Q04DX002 (ip), vehicle: suspension in saline 102 % of control

O=C(O)CNCC(=O)O
inactive: dose: 12.5 mg/kg/injection, schedule: Q01DX009 (ip), vehicle: saline 94 % of control | dose: 25.0 mg/kg/injection, schedule: Q01DX009 (ip), vehicle: saline 99 % of control | dose: 50.0 mg/kg/injection, schedule: Q01DX009 (ip), vehicle: saline 93 % of control | dose: 100.0 mg/kg/injection, schedule: Q01DX009 (ip), vehicle: saline 100 % of control and 98 % of control | dose: 200.0 mg/kg/injection, schedule: Q01DX009 (ip), vehicle: saline 100 % of control | dose: 400.0 mg/kg/injection, schedule: Q01DX009 (ip), vehicle: saline 90 % of control

CC(C)(CC#N)c1cc(CC(C)(C)C2(C)OCCO2)no1
inactive: [1] 104 % of control | [2] 98 % of control | [3] 92 % of control

O=C(O)c1ccc2c3c(n[se]c13)-c1ccccc1C2=O
inactive: [4] 99 % of control | [5] 103 % of control

COC(=O)c1nnn(-c2cc(Cl)ccc2Cl)c1N
inactive: dose: 60.0 mg/kg/injection, schedule: Q01DX005 (ip), vehicle: saline with Tween-80 91 % of control

CC(C)CC1NC(=O)C2N=C(OC2C)C2CSSCC(NC(=O)c3csc1n3)C1=NC(C(=O)NC(CC(C)C)c3nc(cs3)C(=O)N2)C(C)O1 (stereo not given)
inactive: dose: 0.2 mg/kg/injection, schedule: Q01DX005 (ip), vehicle: DMSO 97 % of control | dose: 0.4 mg/kg/injection, schedule: Q01DX005 (ip), vehicle: DMSO 96 % of control | dose: 0.8 mg/kg/injection, schedule: Q01DX005 (ip), vehicle: DMSO 90 % of control | dose: 1.5 mg/kg/injection, schedule: Q01DX005 (ip), vehicle: DMSO 97 % of control

Cc1cc(-n2nnc3ccccc3c2=O)on1
inactive: dose: 60.0 mg/kg/injection, schedule: Q01DX005 (ip), vehicle: Klucel (hydroxypropylcellulose) (HPC) 114 % of control | dose: 120.0 mg/kg/injection, schedule: Q01DX005 (ip), vehicle: Klucel (hydroxypropylcellulose) (HPC) 101 % of control | dose: 240.0 mg/kg/injection, schedule: Q01DX005 (ip), vehicle: Klucel (hydroxypropylcellulose) (HPC) 119 % of control

Cc1cc2c(cc1C)NC1C(=O)C(c3cccc([N+](=O)[O-])c3)OC1=N2 (stereo not given)
inactive: [4] 111 % of control | [5] 90 % of control | dose: 200.0 mg/kg/injection, schedule: Q01DX005 (ip), vehicle: Klucel (hydroxypropylcellulose) (HPC) 87 % of control

Nc1nnn(N)n1
inactive: dose: 100.0 mg/kg/injection, schedule: Q04DX003 (ip), vehicle: saline 92 % of control | dose: 200.0 mg/kg/injection, schedule: Q04DX003 (ip), vehicle: saline 100 % of control

O=C(O)C1=C(O)CCN=C1
inactive: dose: 12.5 mg/kg/injection, schedule: Q01DX005 (ip), vehicle: Klucel (hydroxypropylcellulose) (HPC) 99 % of control | dose: 25.0 mg/kg/injection, schedule: Q01DX005 (ip), vehicle: Klucel (hydroxypropylcellulose) (HPC) 99 % of control | [4] 105 % of control

CC1=CCC(=O)C=[N+]1Cc1ccccc1
inactive: dose: 6.25 mg/kg/injection, schedule: Q01DX005 (ip), vehicle: saline 114 % of control | dose: 12.5 mg/kg/injection, schedule: Q01DX005 (ip), vehicle: saline 100 % of control
